Results taken from patent USRE37525E1, “Method for treating infectious respiratory diseases” (priority 1991, dated 2002).
Several values for one entry are separate records, joined by “and”; a condition that tells them apart may be missing. Equal entries are not always repeated. Entries after “also recorded” stand apart in the source; their conditions may differ. Where two headings read alike, the source gives them in different places.

What was measured:
[1] = system: parainfluenza virus type 3 (PIV3); assay type: in vivo, cotton rats (Sigmodon hispidus)
Text: (§1) Inbred cotton rats (Sigmodon hispidus) were obtained from the colony of Virion Systems, Inc. Adult animals, free from specific rodent pathogens, were used. Animals were housed in large polycarbonate rat cages with a bedding of hardwood chips, and fed a diet of standard rat chow and water. Adult animals ranging from 1 to 8 months of age were used. No age-related differences in response to infection or treatment were seen.
(§2) Hydrocortisone acetate was selected as the prototypical corticosteroid for the anti-inflammatory studies. Cotton rats were infected (Day 0) by intranasal instillation of PIV3 (10^6 pfu/animal) or Ad-5 (10^9 pfu/animal). Animals were anesthetized with methoxyflurane, and the inoculating virus was delivered in a volume of 0.1 ml/100 gm body weight of the animal. On Day 3, animals were anesthetized with methoxyflurane, and hydrocortisone acetate (50 mg/ml) was instilled intranasally in a volume of 0.1 ml/100 gm body weight. The same treatment with hydrocortisone acetate was repeated once per day on Days 4 and 5. For purposes of comparison, control animals were infected concurrently on Day 0, but received no treatment on Days 3, 4, or 5. On Day 6, all animals were euthanized by carbon dioxide intoxication.
These included dexamethasone acetate (8 mg/ml) and triamcinolone acetonide (40 mg/ml). Of course, other corticosteroids or anti-inflammatory agents known to one of ordinary skill in the art could also be used.
(§3) Lungs were removed from the thorax and inflated through the trachea with neutral buffered formalin. Histologic sections were made by following standard procedures and stained with hematoxylin and eosin (H&E).
(§4) Topical administration was accomplished by anesthetizing the animals, holding them in a vertical posture, and instilling a solution containing corticosteroid onto the nares. A total volume of 0.1 ml/100 gm body weight was used. […] However, for human administration it is desirable to use a small particle aerosol delivered by a device that could be triggered by inhalation or used synchronously with the inhalation phase of ventilation for patients on a ventilator. Such a device could deliver aerosol from powder (spinhaler) or liquid. Since many patients, especially young infants and debilitated adults, may have diminished respiratory inhalation vigor, it is important to synchronize aerosol generation with inhalation. This could be accomplished by having inhalation trigger the aerosol delivery to the airway (nasal prongs, oral tube, etc.). The trigger mechanism could include negative pressure from inhalation, chest movement, or electrical triggering synchronized with diaphragmatic contraction. Electrical leads used to monitor respirations could be used to synchronize aerosol generation to be triggered at the first initiation of diaphragmatic contraction and respiration. Any form of aerosol generator is suitable if aerosol delivery is synchronized with inhalation and appropriate particle size is consistently generated.
(§5) Therapeutic efficacy is determined by comparing two parameters in treated versus control animals: (1) the percentage of alveoli on a single H&E-stained coronal section of lungs containing interstitial and/or intraalveolar pathology; and (2) the percentage of bronchioles, on the same section of lungs, affected by peribronchiolar lymphocytic infiltration.
Triamcinolone acetonide was selected as the prototypical corticosteroid for the combined anti-infective and anti-inflammatory studies. […] Therefore, the use of triamcinolone acetonide is merely by example of a general property of corticosteroids. Cotton rats were infected (Day 0) by intranasal instillation of PIV3 (10^6 pfu/animal) or RSV (10^5 pfu/animal). Animals were anesthetized with methoxyflurane, and the inoculating virus was delivered in a volume of 0.1 ml/100 gm body weight of the animal. […]

adenovirus type 5 (Ad-5) = assay: Pulmonary pathology (histology) in Ad-5-infected cotton rats; assay type: in vivo
Text: as §1, §2, §3, §4, §5

[2] = system: respiratory syncytial virus (RSV); assay type: in vivo; conditions: for % Bronchioles: group mean, Table 8, triamcinolone acetonide 4 mg/kg, ribavirin 20 mg/kg, topical Days 3, 4, 5, Day 6; for effect on pulmonary pathology (in words): topical treatment Days 3, 4, 5
Experimental: (§6) Triamcinolone acetonide was selected as the prototypical corticosteroid for the combined anti-infective and anti-inflammatory studies. […] Cotton rats were infected (Day 0) by intranasal instillation of PIV3 (10^6 pfu/animal) or RSV (10^5 pfu/animal). Animals were anesthetized with methoxyflurane, and the inoculating virus was delivered in a volume of 0.1 ml/100 gm body weight of the animal. On Day 3, animals were anesthetized with methoxyflurane, and treated by intranasal instillation of anti-infective agent or a combination of anti-infective agent and corticosteroid, in a volume of 0.1 ml/100 gm body weight. The same treatment was repeated once per day on Days 4 and 5. For purposes of comparison, control animals were infected concurrently on Day 0, but received no treatment on Days 3, 4, or 5. On Day 6, the time of maximum pulmonary pathology in infected, untreated animals, all animals were euthanized by carbon dioxide intoxication.
(§7) Three experiments were performed using combined therapy: (1) anti-PIV3 antibody (100 mg/kg) and triamcinolone acetonide (4 mg/kg) were used to treat PIV3 infection; (2) anti-RSV antibody (25 mg/kg) and triamcinolone acetonide (4 mg/kg) were used to treat RSV infection; (3) ribavirin (20 mg/kg) and triamcinolone acetonide (4 mg/kg) were used to treat RSV infection. All agents were administered topically as described above in “Drug Testing”.
Histopathology studies. After animals were sacrificed by carbon dioxide intoxication, the chest cavity was opened, and the heart and lungs removed intact. The trachea was cannulated with a blunt needle, the lungs inflated with 10% neutral buffered formalin to their normal volume, and the trachea tied with a suture. Coronal sections of the lungs were cut at a thickness of 4 microns, and stained with hematoxylin and eosin.
Standard published pathologic criteria for the identification and scoring of bronchiolitis and interstitial pneumonia were used (Porter, 1991 J. Virol. 65:103-111). Briefly, bronchiolitis is the accumulation of inflammatory cells, mostly or exclusively lymphocytes, in and around bronchioles. There may be accompanying damage to the epithelial cells, including loss of cilia or cell death. Interstitial pneumonia is thickening of the alveolar walls, usually accompanied by infiltration of inflammatory cells into the alveolar septae. Bronchiolitis was quantitated by examining each bronchiole within the lung section (generally 40-70 bronchioles) and scoring for the presence or absence of lymphocytic infiltration. The percentage of affected bronchioles was then calculated. Interstitial pneumonia was quantitated by estimating the percentage of affected alveolar tissue in the lung section. A minimum of four animals were examined for each time point. Arithmetic means of pathology scores were calculated, and differences between treatment groups evaluated by the Student t-test of summary data. In each experiment, uninfected animals served as sentinels to rule out the presence of adventitious agents.

[3] = system: respiratory syncytial virus (RSV); assay type: in vivo; conditions: topical treatment Days 3, 4, 5
Experimental: as §6, §7
(§8) Cotton rats were challenged to induce infection in the following manner. The frozen virus (usually at a concentration of 10^5 pfu/ml) was thawed and then immediately instilled (0.05 ml/nostril) into anesthetized cotton rats. […] Lungs were removed from the animal, homogenized in tissue culture fluid, and cultured on HEp2 monolayers. The amount of virus was then quantified.
(§9) A single pool of purified human IgG, with known neutralizing antibody titer, was used with each virus throughout the experiments, to minimize experimental variability. […] Once determined, this dose was used in all subsequent experiments.
(§10) Titrations of virus in pulmonary tissues. Animals were sacrificed by carbon dioxide intoxication. After the thoracic wall was removed aseptically, the lungs were dissected from the heart, and homogenized in a TenBroeck tissue grinder in 10 parts (v:w) of Hanks, balanced salt solution, modified for stabilizing virus by the addition of 0.218 M sucrose, 4.4 mM glutamate, 3.8 mM KH2PO4 and 7.2 mM K2HPO4. […] After four days incubation at 37° C. under methylcellulose overlay, the cells were stained with crystal violet in glutaraldehyde solution, and the plaques counted. Viral titers were expressed as a geometric mean, plus or minus the standard error, for all animals (a minimum of four) at a given time point. […]

[4] = system: parainfluenza virus type 3 (PIV3); assay type: in vivo; conditions: topical treatment Days 3, 4, 5
Experimental: as §6, §7, §8, §9, §10

[5] = group mean, Experiment 5, dexamethasone acetate 8 mg/ml or triamcinolone acetonide 40 mg/ml intranasal Days 3-5, Day 6
[6] = mean, Exps. 1, 2, 6 and 7 combined
[7] = range over experiments, treated vs control
[8] = individual animals (Exps. 3, 4)
[9] = group mean, Table 6, triamcinolone acetonide 4 mg/kg, anti-PIV3 IgG 100 mg/kg, topical Days 3, 4, 5, Day 6

Structure (SMILES): CC(=O)OCC(=O)[C@@]1(O)[C@H](C)C[C@H]2[C@@H]3CCC4=CC(=O)C=C[C@]4(C)[C@@]3(F)[C@@H](O)C[C@@]21C [Dexamethasone, dexamethasone acetate]
- reduction of alveolar inflammation compared to control values ([1]; Experiment 5): 28%
- reduction of bronchiolar inflammation compared to control values ([1]; Experiment 5): 75%
- % Alveoli [1, 5]: 50%
- % Bronchioles [1, 5]: 21%
- % Bronchioles ([1]; individual animals, Experiment 5): 29% and 21% and 14%

Structure (SMILES): CC(=O)OCC(=O)[C@@]1(O)CC[C@H]2[C@@H]3CCC4=CC(=O)CC[C@]4(C)[C@H]3[C@@H](O)C[C@@]21C [hydrocortisone acetate, Hydrocortisone acetate]
- % Bronchioles ([1]; group mean per experiment (Exps. 1, 2, 6, 7), hydrocortisone acetate 50 mg/ml, 0.1 ml/100 gm intranasal Days 3, 4, 5, histology Day 6): 9% and 15%
- % Alveoli [1, 6]: 24%
- % Bronchioles [1, 6]: 15%
- net reduction in disease, alveolar inflammation [1, 7]: 27-56%
- net reduction in disease, bronchiolar inflammation [1, 7]: 77-85%
- exacerbated disease in treated animals ([1]; topical hydrocortisone acetate): no evidence of exacerbated disease
- % Alveoli (adenovirus type 5 (Ad-5); [8]): 10% (2×) and 5% and 9% and 50% and 40% (2×) and 20%
- % Bronchioles (adenovirus type 5 (Ad-5); [8]): 18% and 16% and 21% and 8% and 26% and 37% and 42% and 50%
- net reduction in disease, alveolar inflammation (adenovirus type 5 (Ad-5); [7]): 46-79%
- net reduction in disease, bronchiolar inflammation (adenovirus type 5 (Ad-5); [7]): 57-77%
- exacerbated disease in treated animals (adenovirus type 5 (Ad-5); topical hydrocortisone acetate): no evidence of exacerbated disease

Structure (SMILES): NC(=O)c1ncn([C@@H]2O[C@H](CO)[C@@H](O)[C@H]2O)n1 [Ribavirin, 1-beta-D-ribofuranosyl-1,2,4,-triazole-3-carboxamide]
- % Bronchioles [2]: 48 (N.S.) %
- therapeutic effectiveness against RSV infection (in words) ([2]; ribavirin 20 mg/kg topical, cotton rat): minimally effective
- effect on pulmonary pathology (in words) [2]: nor affected pulmonary pathology
- effect on pulmonary pathology (in words) ([2]; listed as ribavirin): no effect on pulmonary pathology
- effect on viral titers / viral shedding (in words) [3]: neither effected a significant reduction in pulmonary RSV titers
- effect on viral titers / viral shedding (in words) ([3]; listed as ribavirin): did not reduce viral titers

Structure (SMILES): CC1(C)O[C@@H]2C[C@H]3[C@@H]4CCC5=CC(=O)C=C[C@]5(C)[C@@]4(F)[C@@H](O)C[C@]3(C)[C@]2(C(=O)CO)O1 [Triamcinolone, triamcinolone acetonide]
- % Bronchioles [2]: 0 (p < 0.001) %
- effect on pulmonary pathology (in words) [2]: dramatically reduced; also recorded: reduced pulmonary pathology
- reduction of alveolar inflammation compared to control values ([1]; Experiment 5): 80%
- reduction of bronchiolar inflammation compared to control values ([1]; Experiment 5): 89%
- % Alveoli [1, 5]: 24% and 24 (p < 0.01) %
- % Bronchioles [1, 5]: 9% and 9 (p < 0.001) %
- % Alveoli [1, 9]: 10 (p < 0.05) % and 10%
- % Bronchioles [1, 9]: 6 (p < 0.001) % and 6%
- effect on viral titers / viral shedding (in words) [3]: prolonged and increased viral shedding
- effect on viral titers / viral shedding (in words) [4]: increased and prolonged viral shedding; also recorded: prolonged and increased viral shedding
